Assay results as given in patent US20110118337A1, “Method of Using Compositions Comprising MIR-192 and/or MIR-215 for the Treatment of Cancer” (Merck Sharp & Dohme Corp., priority 2008, published 2011).

Key:
[1] = system: miR-192 target transcripts; assay: Down-regulation of miR-192 target transcripts; assay type: cell-based
[2] = system: HCT116 DICER^ex5 cells; assay: Gene expression profiling (Agilent 44K microarray) after transfection of miR-192/miR-215 duplex mimetics; assay type: cell-based, human; conditions: 10 hr; 10 nM; vs mock-transfected
Description: Synthetic duplex mimetics of miR-192 and miR-215 (sequences shown in TABLE 1) or a control target Luciferase siRNA (Luc), shown in TABLE 1, were transfected (10 nM final concentration) into HCT116 DICER^ex5, a human colorectal cancer cell line with hypomorphic DICER function (Cummins, J. M., et al., PNAS 103:3687-3692 (2006)). The transfections were carried out using Lipofectamine RNAiMax (Invitrogen) per the manufacturer's instructions. At 10 and 24 hours post-transfection, total RNA was extracted and gene expression profiling was carried out with the Agilent 44K microarray in comparison to RNA isolated from mock-transfected HCT116DICER^ex5 cells. Microarray analysis was carried out as described in Linsley, P. S., et al., Mol Cell Biol 27:2240-2252 (2007). Gene expression data analysis was done either with the Rosetta Resolver gene expression analysis software (Version 7.1 Rosetta Biosoftware).

## miR-192: Synthetic duplex mimetic of miR-192, guide CUGACCUAUGAAUUGACAGCC (SEQ ID NO:1), passenger SEQ ID NO:7 (sense CUGUCAAUUCAUCGGUCUGAU; listed as RNA, chemistry not given here; listed as Homo sapiens)
[1]
  down-regulation of target transcripts: 30-40%
[2]
  BCL2 transcript fold change: −1.1 fold change
  BRCA1 transcript fold change: −1.02 fold change
  CDC7 transcript fold change: −1.63 fold change
  CDC14A transcript fold change: −1.02 fold change
  CDC73 transcript fold change: −1.2 fold change
  CRK transcript fold change: −1.42 fold change
  CTCF transcript fold change: −1.59 fold change
  CUL5 transcript fold change: −1.16 fold change
  DBF4B transcript fold change: −1.12 fold change
  DEK transcript fold change: −1.21 fold change
  DLG5 transcript fold change: −1.99 fold change
  DTL transcript fold change: −1.11 fold change
  EMP1 transcript fold change: −1.28 fold change
  ERCC3 transcript fold change: −1.3 fold change
  EXTL2 transcript fold change: −1.2 fold change
  FGF2 transcript fold change: −1.48 fold change
  HOXA10 transcript fold change: −1.7 fold change
  HRH1 transcript fold change: −1.36 fold change
  KIF14 transcript fold change: −1.03 fold change
  KIF23 transcript fold change: −1.01 fold change
  LMNB2 transcript fold change: −1.38 fold change
  MACF1 transcript fold change: −1.3 fold change
  MAD2L transcript fold change: −1.18 fold change
  MCM3 transcript fold change: −1.51 fold change
  MCM6 transcript fold change: −1.01 fold change
  MCM10 transcript fold change: −1.77 fold change
  MIS12 transcript fold change: −1.25 fold change
  MKI67 transcript fold change: −1.08 fold change
  MPHOSPH1 transcript fold change: −1.32 fold change
  MTSS1 transcript fold change: −1.06 fold change
  NBN transcript fold change: −1.49 fold change
  NCAPH transcript fold change: 1.01 fold change
  NEK1 transcript fold change: −1.12 fold change
  NFIB transcript fold change: −1.47 fold change
  NFYA transcript fold change: −1.22 fold change
  NIN transcript fold change: −1.1 fold change
  PAFAH1B1 transcript fold change: −1.83 fold change
  PAPD5 transcript fold change: −1.32 fold change
  PFTK1 transcript fold change: 1.03 fold change
  PIM1 transcript fold change: −1.2 fold change
  PLAU transcript fold change: −1.74 fold change
  PLS3 transcript fold change: −1.44 fold change
  POLQ transcript fold change: −1.03 fold change
  POLS transcript fold change: −1.23 fold change
  PPP1CA transcript fold change: −1.83 fold change
  PRPF38A transcript fold change: −1.11 fold change
  RACGAP1 transcript fold change: −1.34 fold change
  RAD1 transcript fold change: −1.2 fold change
  RAD51 transcript fold change: 1.08 fold change
  RAP1GAP transcript fold change: −1.11 fold change
  RB1 transcript fold change: −1.21 fold change
  SEPT10 transcript fold change: −1.59 fold change
  SERTAD2 transcript fold change: −1.12 fold change
  SH3BP4 transcript fold change: −1.52 fold change
  SMARCB1 transcript fold change: −1.16 fold change
  TDG transcript fold change: −1.47 fold change
  TDP1 transcript fold change: −1.44 fold change
  TOP1 transcript fold change: −1.52 fold change
  TUBGCP3 transcript fold change: −1.26 fold change
  USP1 transcript fold change: −1.13 fold change
  UVRAG transcript fold change: −1.2 fold change
